Source: PubChem BioAssay AID1963437 (Molecular Pharmacology Branch, DTP, NCI, 2024)
Where “and” joins values, the source holds several entries; their conditions need not be identical. Equal entries are not always repeated. Values belong to the compound of their own block, whether it stands above or below them.

Test system: OVCAR-8 complex spheroid, growth inhibition
Experiment: Anticancer human tumor OVCAR-8 cell line growth inhibition [Asc];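 further: spheroids exposed to agents for 7 days before readout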;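 on viability, T/C: percent viability relative to DMSO vehicle wells taken as 100%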
Conditions: for viability, T/C: stronger effect = lower value
Summary of the method: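 Complex solid-tumor spheroids incorporating human endothelial and mesenchymal stem cells received single agents or combinations over half-log dilution ranges anchored to clinical Cmax.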

[1] = curve of first compound, second compound 0.0316 µM
[2] = curve of first compound, second compound 0.1 µM
[3] = curve of first compound, second compound 0.316 µM
[4] = curve of first compound, second compound 1 µM
[5] = second compound 0.0316 µM, first compound 0.00316 µM
[6] = second compound 0.0316 µM, first compound 0.01 µM
[7] = second compound 0.0316 µM, first compound 0.0316 µM
[8] = second compound 0.0316 µM, first compound 0.1 µM
[9] = second compound 0.1 µM, first compound 0.00316 µM
[10] = second compound 0.1 µM, first compound 0.01 µM
[11] = second compound 0.1 µM, first compound 0.0316 µM
[12] = second compound 0.1 µM, first compound 0.1 µM
[13] = second compound 0.316 µM, first compound 0.00316 µM
[14] = second compound 0.316 µM, first compound 0.01 µM
[15] = second compound 0.316 µM, first compound 0.0316 µM
[16] = second compound 0.316 µM, first compound 0.1 µM
[17] = second compound 1 µM, first compound 0.00316 µM
[18] = second compound 1 µM, first compound 0.01 µM
[19] = second compound 1 µM, first compound 0.0316 µM
[20] = second compound 1 µM, first compound 0.1 µM

IC50 (curve of compound): > 100 nM
SMILES: NC1CCC(NC2CC2c2ccccc2)CC1 (stereo not given)
viability, T/C (compound 0.000316 µM): 94.7% and 96.7% and 105% | viability, T/C (compound 0.001 µM): 87.7% and 82.6% and 99.8% | viability, T/C (compound 0.00316 µM): 83.1% and 85.2% and 104% | viability, T/C (compound 0.01 µM): 104% and 81.5% and 119% | viability, T/C (compound 0.0316 µM): 113% and 98.7% and 95% | viability, T/C (compound 0.1 µM): 83% and 91.6% and 115%

IC50 (curve of compound): > 1000 nM
SMILES: COc1c(OCCCN2CCOCC2)ccc2c3n(c(=NC(=O)c4cnc(N)nc4)nc12)CCN3
viability, T/C (compound 0.00316 µM): 98.2% and 94.8% and 108% | viability, T/C (compound 0.01 µM): 111% and 110% and 109% | viability, T/C (compound 0.0316 µM): 120% and 123% and 130% | viability, T/C (compound 0.1 µM): 167% and 133% and 157% | viability, T/C (compound 0.316 µM): 134% and 141% and 143% | viability, T/C (compound 1 µM): 77% and 89.5% and 94.5%

IC50 (curve of compound): > 10000 nM
SMILES: C#Cc1c(F)ccc2cc(O)cc(-c3ncc4c(N5CC6CCC(C5)N6)nc(OCC56CCCN5CC(F)C6)nc4c3F)c12 (stereo not given)
viability, T/C (compound 0.0316 µM): 110% and 90.4% and 96.5% | viability, T/C (compound 0.1 µM): 95.6% and 80.1% and 97.5% | viability, T/C (compound 0.316 µM): 101% and 110% and 87% | viability, T/C (compound 1 µM): 110% and 94.2% and 95% | viability, T/C (compound 3.16 µM): 93.7% and 83.9% and 94.7% | viability, T/C (compound 10 µM): 116% and 98.9% and 85.9%

IC50 (curve of first compound, second compound 0.00316 µM): > 100 nM | IC50 (curve of first compound, second compound 0.01 µM): > 100 nM | IC50 [1]: > 100 nM | IC50 [2]: > 100 nM | IC50 [3]: > 100 nM | IC50 [4]: > 100 nM
SMILES: NC1CCC(NC2CC2c2ccccc2)CC1 (stereo not given) + CNC(C)C(=O)NC1CN(S(=O)(=O)c2cccc(S(=O)(=O)N3CCC4CCC(C(=O)NC(c5ccccc5)c5ccccc5)N4C(=O)C(NC(=O)C(C)NC)C3)c2)CCC2CCC(C(=O)NC(c3ccccc3)c3ccccc3)N2C1=O
viability, T/C (second compound 0.00316 µM, first compound 0.000316 µM): 117% | viability, T/C (second compound 0.00316 µM, first compound 0.001 µM): 106% | viability, T/C (second compound 0.00316 µM, first compound 0.00316 µM): 102% | viability, T/C (second compound 0.00316 µM, first compound 0.01 µM): 90.9% | viability, T/C (second compound 0.00316 µM, first compound 0.0316 µM): 99.4% | viability, T/C (second compound 0.00316 µM, first compound 0.1 µM): 87.1% | viability, T/C (second compound 0.01 µM, first compound 0.000316 µM): 118% | viability, T/C (second compound 0.01 µM, first compound 0.001 µM): 87.7% | viability, T/C (second compound 0.01 µM, first compound 0.00316 µM): 119% | viability, T/C (second compound 0.01 µM, first compound 0.01 µM): 91.5% | viability, T/C (second compound 0.01 µM, first compound 0.0316 µM): 86.7% | viability, T/C (second compound 0.01 µM, first compound 0.1 µM): 91.7% | viability, T/C (second compound 0.0316 µM, first compound 0.000316 µM): 93.9% | viability, T/C (second compound 0.0316 µM, first compound 0.001 µM): 112% | viability, T/C [5]: 96.3% | viability, T/C [6]: 98.5% | viability, T/C [7]: 101% | viability, T/C [8]: 107% | viability, T/C (second compound 0.1 µM, first compound 0.000316 µM): 79.2% | viability, T/C (second compound 0.1 µM, first compound 0.001 µM): 79.2% | viability, T/C [9]: 93.3% | viability, T/C [10]: 93% | viability, T/C [11]: 88.4% | viability, T/C [12]: 104% | viability, T/C (second compound 0.316 µM, first compound 0.000316 µM): 78.8% | viability, T/C (second compound 0.316 µM, first compound 0.001 µM): 86.6% | viability, T/C [13]: 88.2% | viability, T/C [14]: 80% | viability, T/C [15]: 82.8% | viability, T/C [16]: 87.2% | viability, T/C (second compound 1 µM, first compound 0.000316 µM): 77.9% | viability, T/C (second compound 1 µM, first compound 0.001 µM): 79.3% | viability, T/C [17]: 94% | viability, T/C [18]: 74.7% | viability, T/C [19]: 85.3% | viability, T/C [20]: 85.7%

IC50 [1]: > 1000 nM | IC50 [2]: > 1000 nM | IC50 [3]: > 1000 nM | IC50 [4]: > 1000 nM | IC50 (curve of first compound, second compound 3.16 µM): > 1000 nM | IC50 (curve of first compound, second compound 10 µM): > 1000 nM
SMILES: CNC(C)C(=O)NC1CN(S(=O)(=O)c2cccc(S(=O)(=O)N3CCC4CCC(C(=O)NC(c5ccccc5)c5ccccc5)N4C(=O)C(NC(=O)C(C)NC)C3)c2)CCC2CCC(C(=O)NC(c3ccccc3)c3ccccc3)N2C1=O (stereo not given) + Cc1c(S(C)(=O)=O)c(-c2cc(F)cc(N3CCN(c4ccc(NS(=O)(=O)c5ccc(NC(CCN6CCC(C(=O)OCCCP(=O)(O)O)CC6)CSc6ccccc6)c(S(=O)(=O)C(F)(F)F)c5)cc4)CC3)c2)c(-c2ccc(Cl)cc2)n1C(C)C
viability, T/C [5]: 97.5% | viability, T/C [6]: 94.6% | viability, T/C [7]: 88.4% | viability, T/C [8]: 90.9% | viability, T/C (second compound 0.0316 µM, first compound 0.316 µM): 67.5% | viability, T/C (second compound 0.0316 µM, first compound 1 µM): 57.5% | viability, T/C [9]: 92.2% | viability, T/C [10]: 84.5% | viability, T/C [11]: 80.8% | viability, T/C [12]: 76.5% | viability, T/C (second compound 0.1 µM, first compound 0.316 µM): 64.5% | viability, T/C (second compound 0.1 µM, first compound 1 µM): 59.7% | viability, T/C [13]: 106% | viability, T/C [14]: 79.2% | viability, T/C [15]: 86.8% | viability, T/C [16]: 80.3% | viability, T/C (second compound 0.316 µM, first compound 0.316 µM): 58.9% | viability, T/C (second compound 0.316 µM, first compound 1 µM): 53.1% | viability, T/C [17]: 123% | viability, T/C [18]: 97.1% | viability, T/C [19]: 86.8% | viability, T/C [20]: 80.6% | viability, T/C (second compound 1 µM, first compound 0.316 µM): 59.4% | viability, T/C (second compound 1 µM, first compound 1 µM): 60.1% | viability, T/C (second compound 3.16 µM, first compound 0.00316 µM): 91.2% | viability, T/C (second compound 3.16 µM, first compound 0.01 µM): 86.8% | viability, T/C (second compound 3.16 µM, first compound 0.0316 µM): 84.7% | viability, T/C (second compound 3.16 µM, first compound 0.1 µM): 67.3% | viability, T/C (second compound 3.16 µM, first compound 0.316 µM): 57.5% | viability, T/C (second compound 3.16 µM, first compound 1 µM): 58.2% | viability, T/C (second compound 10 µM, first compound 0.00316 µM): 101% | viability, T/C (second compound 10 µM, first compound 0.01 µM): 78.2% | viability, T/C (second compound 10 µM, first compound 0.0316 µM): 78.9% | viability, T/C (second compound 10 µM, first compound 0.1 µM): 60.2% | viability, T/C (second compound 10 µM, first compound 0.316 µM): 52% | viability, T/C (second compound 10 µM, first compound 1 µM): 59.2%
